The results in this text go back to patent US12565505B2, “mTORC modulators and uses thereof” (Aeovian Pharmaceuticals, Inc., priority 2019, dated 2026).

The target in one assay is T1, mTORC2 (Homo sapiens, UniProt P42345+P62942).
T1 construct: endogenous in cells; host or cells: PC3 cells (human prostate adenocarcinoma)
The assay is described as follows: Inhibition assay for mTORC2: phosphorylation of pAkt at Ser473, AlphaLISA SureFire in PC3 cells. Type of assay: cell-based. The note with it: PC3 cells, 24 hours treatment, analogs substituted at C40 and C16 (C16 diastereomer mixtures not isolated); for IC50: read-out: pIC50 mTORC2 (converted). As to the method: The IC50s of the inhibition of mTORC1 and mTORC2 were determined in vitro by determining the phosphorylation of pS6K at position Thr389 (mTORC1 inhibition) and pAkt at Ser473 (mTORC2 inhibition). In vitro studies were performed with AiphaLISA® technology using PC3 cells (Prostate Adenocarcinoma; Human (Homo sapiens)). The cells were seeded in 96 well plates and were treated for 24 hours with the different compounds. […] All analysis were performed using GraphPad Prism 7.0 (GraphPad Software, San Diego, USA). […]
(In general: Alpha assays give light when donor and acceptor beads are brought close together.)

The next assay addresses T2, mTORC1 (Homo sapiens, UniProt P42345+P62942).
T2 construct: endogenous in cells; host or cells: PC3 cells (human prostate adenocarcinoma)
The assay is described as follows: Inhibition assay for mTORC1: phosphorylation of pS6K at Thr389, AlphaLISA SureFire in PC3 cells. Type of assay: cell-based. The note with it: PC3 cells, 24 hours treatment, pS6K Thr389, analogs substituted at C40 and C16 (C16 diastereomer mixtures not isolated); for IC50: read-out: pIC50 mTORC1 (converted). As to the method: The IC50s of the inhibition of mTORC1 and mTORC2 were determined in vitro by determining the phosphorylation of pS6K at position Thr389 (mTORC1 inhibition) and pAkt at Ser473 (mTORC2 inhibition). In vitro studies were performed with AiphaLISA® technology using PC3 cells (Prostate Adenocarcinoma; Human (Homo sapiens)). The cells were seeded in 96 well plates and were treated for 24 hours with the different compounds. […] All analysis were performed using GraphPad Prism 7.0 (GraphPad Software, San Diego, USA).
Tables 5-7 include PIC50 values for mTORC1 of selected compounds; with compounds having an PIC50 for mTORC1 of >9.5 as A, 8.5 to 9.5 as B, and less than 8.5 as C.

Turning to `COCCOC1C[C@@H]2CC[C@@H](C)[C@@](O)(O2)C(=O)C(=O)N2CCCCC2C(=O)O[C@H]([C@H](C)C[C@@H]2CC[C@@H](OC)[C@H](OC)C2)CC(=O)[C@H](C)/C=C(\C)[C@@H](O)[C@@H](OC)C(=O)[C@H](C)C[C@H](C)/C=C/C=C/C=C/1C` (stereo partly drawn) [Compound 11], the IC50 on mTORC2 is greater than 10 µM; on mTORC1 it was less than 0.000316 µM.
Turning to `CO[C@@H]1C[C@H](C[C@@H](C)[C@@H]2CC(=O)[C@H](C)/C=C(\C)[C@@H](O)[C@@H](OC)C(=O)[C@H](C)C[C@H](C)/C=C/C=C/C=C(\C)C(OCC(C)(C)O)C[C@@H]3CC[C@@H](C)[C@@](O)(O3)C(=O)C(=O)N3CCCCC3C(=O)O2)CC[C@H]1OCCCO` (stereo partly drawn) [Compound 98], the IC50 on mTORC2 is 1 to 10 µM; on mTORC1, 0.000316 to 0.00316 µM.
Consider `COCCCCOC1C[C@@H]2CC[C@@H](C)[C@@](O)(O2)C(=O)C(=O)N2CCCCC2C(=O)O[C@H]([C@H](C)C[C@@H]2CC[C@@H](OCCCO)[C@H](OC)C2)CC(=O)[C@H](C)/C=C(\C)[C@@H](O)[C@@H](OC)C(=O)[C@H](C)C[C@H](C)/C=C/C=C/C=C/1C` (stereo partly drawn) [Compound 70, (1R,9S,12S,15R,16E,18R,19R,21R,23S,24E,26E,28E,32S,35R)-1,18-dihydroxy-12-[(1R)-2-[(1S,3R,4R)-4-(3-hydroxypropoxy)-3-methoxy-cyclohexyl]-1-methyl-ethyl]-19-methoxy-30-(4-methoxybutoxy)-15,17,21,23,29,35-hexamethyl-11,36-dioxa-4-azatricyclo[30.3.1.0^4,9]hexatriaconta-16,24,26,28-tetraene-2,3,10,14,20-pentone], for which the IC50 was 1 to 10 µM at mTORC2 and less than 0.000316 µM at mTORC1.
On to `COCCOC1C[C@@H]2CC[C@@H](C)[C@@](O)(O2)C(=O)C(=O)N2CCCCC2C(=O)O[C@H]([C@H](C)C[C@@H]2CC[C@@H](OCCCN3C[C@@H](C)O[C@@H](C)C3)[C@H](OC)C2)CC(=O)[C@H](C)/C=C(\C)[C@@H](O)[C@@H](OC)C(=O)[C@H](C)C[C@H](C)/C=C/C=C/C=C/1C` (stereo partly drawn) [Compound 59], for which the IC50 on mTORC2 was 1 to 10 µM; at mTORC1 it was less than 0.000316 µM.
Turning to `COCCOC1C[C@@H]2CC[C@@H](C)[C@@](O)(O2)C(=O)C(=O)N2CCCCC2C(=O)O[C@H]([C@H](C)C[C@@H]2CC[C@@H](OCCCN3CCCCC3)[C@H](OC)C2)CC(=O)[C@H](C)/C=C(\C)[C@@H](O)[C@@H](OC)C(=O)[C@H](C)C[C@H](C)/C=C/C=C/C=C/1C` (stereo partly drawn) [Compound 35], the IC50 on mTORC2 was 1 to 10 µM; at mTORC1 it was less than 0.000316 µM.
On to `CO[C@@H]1C[C@H](C[C@@H](C)[C@@H]2CC(=O)[C@H](C)/C=C(\C)[C@@H](O)[C@@H](OC)C(=O)[C@H](C)C[C@H](C)/C=C/C=C/C=C(\C)C(OC(C)C)C[C@@H]3CC[C@@H](C)[C@@](O)(O3)C(=O)C(=O)N3CCCCC3C(=O)O2)CC[C@H]1OCCCc1ccccc1` (stereo partly drawn) [Compound 96], for which the IC50 on mTORC2 was greater than 10 µM; at mTORC1, greater than 0.00316 µM.
Take `CO[C@@H]1C[C@H](C[C@@H](C)[C@@H]2CC(=O)[C@H](C)/C=C(\C)[C@@H](O)[C@@H](OC)C(=O)[C@H](C)C[C@H](C)/C=C/C=C/C=C(\C)C(OCCc3ccccc3)C[C@@H]3CC[C@@H](C)[C@@](O)(O3)C(=O)C(=O)N3CCCCC3C(=O)O2)CC[C@H]1OC(=O)N(CCO)CCO` (stereo partly drawn) [Compound 112, [(1R,2R,4S)-4-[(2R)-2-[(1R,9S,12S,15R,16E,18R,19R,21R,23S,24E,26E,28E,32S,35R)-1,18-dihydroxy-19-methoxy-15,17,21,23,29,35-hexamethyl-2,3,10,14,20-pentaoxo-30-(2-phenylethoxy)-11,36-dioxa-4-azatricyclo[30.3.1.0^4,9]hexatriaconta-16,24,26,28-tetraen-12-yl]propyl]-2-methoxy-cyclohexyl] N,N-bis(2-hydroxyethyl)carbamate]: the values for the IC50 at mTORC2 and at mTORC1 were less than 1 µM and less than 0.000316 µM, respectively.
Turning to `CO[C@@H]1C[C@H](C[C@@H](C)[C@@H]2CC(=O)[C@H](C)/C=C(\C)[C@@H](O)[C@@H](OC)C(=O)[C@H](C)C[C@H](C)/C=C/C=C/C=C(\C)C(OCCO)C[C@@H]3CC[C@@H](C)[C@@](O)(O3)C(=O)C(=O)N3CCCCC3C(=O)O2)CC[C@H]1OC(=O)NCCN1CCOCC1` (stereo partly drawn) [Compound 82], the IC50 on mTORC2 is 1 to 10 µM; on mTORC1, 0.000316 to 0.00316 µM.
In the case of `CO[C@@H]1C[C@H](C[C@@H](C)[C@@H]2CC(=O)[C@H](C)/C=C(\C)[C@@H](O)[C@@H](OC)C(=O)[C@H](C)C[C@H](C)/C=C/C=C/C=C(\C)C(OCCO)C[C@@H]3CC[C@@H](C)[C@@](O)(O3)C(=O)C(=O)N3CCCCC3C(=O)O2)CC[C@H]1OCCCc1ccccc1` (stereo partly drawn) [Compound 38], the IC50 on mTORC2 is greater than 10 µM; on mTORC1, 0.000316 to 0.00316 µM.
With `CO[C@@H]1C[C@H](C[C@@H](C)[C@@H]2CC(=O)[C@H](C)/C=C(\C)[C@@H](O)[C@@H](OC)C(=O)[C@H](C)C[C@H](C)/C=C/C=C/C=C(\C)C(OCCc3ccccc3)C[C@@H]3CC[C@@H](C)[C@@](O)(O3)C(=O)C(=O)N3CCCCC3C(=O)O2)CC[C@H]1OCCO` (stereo partly drawn) [Compound 99], the IC50 on mTORC2 was 1 to 10 µM; on mTORC1 it was less than 0.000316 µM.
Regarding “(1R,9S,12SR,15R,16E,18R,19R,21R,23S,24E,26E,28E,32SR,35R)-1,18-dihydroxy-30-(3-hydroxypropoxy)-19-methoxy-12-[(1R)-2-[(1S,3R,4R)-3-methoxy-4-(3-phenylpropoxy)cyclohexyl]-1-methyl-ethyl]-15,17,21,23,29,35-hexamethyl-11,36-dioxa-4-azatricyclo[30.3.1.0^4,9]hexatriaconta-16,24,26,28-tetraene-2,3,10,14,20-pentone [Compound 67]”, the “pIC50 mTORC2” value at mTORC2 is recorded as “A (PIC50 for mTORC2 of <5 as A)”. For the same molecule, the “pIC50 mTORC1” value at mTORC1 is recorded as “B (8.5 to 9.5 as B)”.
Regarding `COCCOC1C[C@@H]2CC[C@@H](C)[C@@](O)(O2)C(=O)C(=O)N2CCCCC2C(=O)O[C@H]([C@H](C)C[C@@H]2CC[C@@H](OC[C@@H](O)CO)[C@H](OC)C2)CC(=O)[C@H](C)/C=C(\C)[C@@H](O)[C@@H](OC)C(=O)[C@H](C)C[C@H](C)/C=C/C=C/C=C/1C` (stereo partly drawn) [Compound 58], the IC50 is 1 to 10 µM at mTORC2 and less than 0.000316 µM on mTORC1.
As to `CO[C@@H]1C[C@H](C[C@@H](C)[C@@H]2CC(=O)[C@H](C)/C=C(\C)[C@@H](O)[C@@H](OC)C(=O)[C@H](C)C[C@H](C)/C=C/C=C/C=C(\C)C(OC[C@@H](O)c3ccccc3)C[C@@H]3CC[C@@H](C)[C@@](O)(O3)C(=O)C(=O)N3CCCCC3C(=O)O2)CC[C@H]1OCCCN1CCOCC1` (stereo partly drawn) [Compound 92], the values for the IC50 on mTORC2 and on mTORC1 were 1 to 10 µM and less than 0.000316 µM, respectively.
As for `CO[C@@H]1C[C@H](C[C@@H](C)[C@@H]2CC(=O)[C@H](C)/C=C(\C)[C@@H](O)[C@@H](OC)C(=O)[C@H](C)C[C@H](C)/C=C/C=C/C=C(\C)C(OCc3ccccc3)C[C@@H]3CC[C@@H](C)[C@@](O)(O3)C(=O)C(=O)N3CCCCC3C(=O)O2)CC[C@H]1OC(=O)NCCc1ccccc1` (stereo partly drawn) [Compound 117], the IC50 on mTORC2 was less than 1 µM; at mTORC1, less than 0.000316 µM.
`COCCOC1C[C@@H]2CC[C@@H](C)[C@@](O)(O2)C(=O)C(=O)N2CCCCC2C(=O)O[C@H]([C@H](C)C[C@@H]2CC[C@@H](OCCCN3CCOCC3)[C@H](OC)C2)CC(=O)[C@H](C)/C=C(\C)[C@@H](O)[C@@H](OC)C(=O)[C@H](C)C[C@H](C)/C=C/C=C/C=C/1C` (stereo partly drawn) [Compound 48]: the IC50 at mTORC2 is 1 to 10 µM; on mTORC1, less than 0.000316 µM.
The matching figures for `CO[C@@H]1C[C@H](C[C@@H](C)[C@@H]2CC(=O)[C@H](C)/C=C(\C)[C@@H](O)[C@@H](OC)C(=O)[C@H](C)C[C@H](C)/C=C/C=C/C=C(\C)C(OC3COC3)C[C@@H]3CC[C@@H](C)[C@@](O)(O3)C(=O)C(=O)N3CCCCC3C(=O)O2)CC[C@H]1OC(=O)NCCN1CCOCC1` (stereo partly drawn) [Compound 71]: greater than 10 µM and 0.000316 to 0.00316 µM.
On to `CO[C@@H]1C[C@H](C[C@@H](C)[C@@H]2CC(=O)[C@H](C)/C=C(\C)[C@@H](O)[C@@H](OC)C(=O)[C@H](C)C[C@H](C)/C=C/C=C/C=C(\C)C(OCCOCCO)C[C@@H]3CC[C@@H](C)[C@@](O)(O3)C(=O)C(=O)N3CCCCC3C(=O)O2)CC[C@H]1OCCO` (stereo partly drawn) [Compound 69], for which the IC50 at mTORC2 is greater than 10 µM; at mTORC1, 0.000316 to 0.00316 µM.
As for `CO[C@@H]1C[C@H](C[C@@H](C)[C@@H]2CC(=O)[C@H](C)/C=C(\C)[C@@H](O)[C@@H](OC)C(=O)[C@H](C)C[C@H](C)/C=C/C=C/C=C(\C)C(OCCO)C[C@@H]3CC[C@@H](C)[C@@](O)(O3)C(=O)C(=O)N3CCCCC3C(=O)O2)CC[C@H]1OC(=O)NCCO` (stereo partly drawn) [Compound 64], the IC50 at mTORC2 is greater than 10 µM; at mTORC1, 0.000316 to 0.00316 µM.
